PMC8841438 (Clinical and Translational Science, 2021)
Where two headings read alike, the source gives them in different places.

Columns and labels:
[1] = assay type: in vivo, human
JAK1 = settings: whole blood and cellular assays; cited from earlier work
P‐gp = settings: in vitro; at clinically relevant concentrations; cited from earlier work
[2] = tested on: organic cation transporter 1; settings: in vitro; at clinically relevant concentrations; cited from earlier work
bile salt export pump = settings: in vitro; at clinically relevant concentrations; cited from earlier work
[3] = tested on: organic anion transporter 3; settings: in vitro; at clinically relevant concentrations; cited from earlier work
[4] = 200 mg and 100 mg once‐daily; patients with active rheumatoid arthritis; phase III; cited from earlier work
[5] = study 2, filgotinib 200 mg after multiple doses of rifampin 600 mg vs alone
[6] = study 2, filgotinib + rifampin vs filgotinib alone

Tmax ([1]; human, plasma, oral): 1.5 h
half-life ([1]; human, plasma, oral): 7.7 h
AUC(0-inf) ([1]; human, plasma, oral, 200 mg): 6960 ng·h/mL
AUC(0-t) ([1]; human, plasma, oral, 200 mg): 6980 ng·h/mL
Cmax ([1]; human, plasma, oral, 200 mg): 2190 ng/mL
Tmax ([1]; human, plasma, oral, 200 mg): 1 h
half-life ([1]; human, plasma, oral, 200 mg): 8.4 h
reduction in AUCinf by rifampin [1, 5]: 27%
reduction in C max by rifampin [1, 5]: 26%
AUCinf %GLSM ratio (90% CI) [1, 6]: 72.7 (69.1, 76.5) %
AUClast %GLSM ratio (90% CI) [1, 6]: 72.7 (69.1, 76.5) %
effect of rifampin on T max and t 1/2 (in words) ([1]; study 2, filgotinib: T max and t 1/2, GS‐829845: Tmax): similar
CL/F ([1]; study 2, single filgotinib 200 mg alone, mean (%CV), N = 14): 30.1 (21.0) L/h
Compound: O=C(Nc1nc2cccc(-c3ccc(CN4CCS(=O)(=O)CC4)cc3)n2n1)C1CC1 [Filgotinib]
potency on JAK1 over JAK2, JAK3, tyrosine kinase 2, and other kinases (JAK1): greater than five‐fold higher potency
inhibition of P‐gp (P‐gp): not inhibitors
inhibition of organic cation transporter 1 [2]: not inhibitors
inhibition of bile salt export pump (bile salt export pump): not inhibitors
inhibition of organic anion transporter 3 [3]: not inhibitors
signs and symptoms and physical function [4]: significantly improved
